# In publication PMC2064570 (The Journal of Cell Biology, 2006):
# Legend:
# TbPTP1 [1] = biological target: T1, TbPTP1 (Trypanosoma brucei, UniProt Q38AT7); assay: pNPP hydrolysis inhibition; assay type: biochemical; conditions: read-out: % inhibition at 10 μM
# T1 sequence (Q38AT7 1-306): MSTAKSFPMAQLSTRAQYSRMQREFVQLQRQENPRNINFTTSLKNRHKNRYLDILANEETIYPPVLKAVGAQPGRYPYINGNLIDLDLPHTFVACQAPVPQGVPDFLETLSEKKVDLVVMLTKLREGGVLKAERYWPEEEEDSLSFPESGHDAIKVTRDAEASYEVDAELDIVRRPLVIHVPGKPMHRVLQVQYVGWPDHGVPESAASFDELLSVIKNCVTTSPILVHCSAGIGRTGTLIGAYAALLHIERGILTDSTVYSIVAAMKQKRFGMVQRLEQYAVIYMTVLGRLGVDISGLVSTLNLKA
# TbPTP1 [2] = biological target: T1, TbPTP1; conditions: pNPP or pEGFR peptide as substrate
# TbPTP1 [3] = biological target: T1, TbPTP1; assay: malachite green phosphate release, Lineweaver-Burk; assay type: biochemical; conditions: 50 mM Hepes, 150 mM NaCl, pH 7.0, 37 °C
structure (smiles),measurement,setting,value
"CCc1oc2cc(S(=O)(=O)Nc3ccc(S(=O)(=O)Nc4nccs4)cc3)ccc2c1C(=O)c1cc(Br)c(O)c(Br)c1 [BZ3, 3-(3,5-Dibromo-4-hydroxy-benzoyl)-2-ethyl-benzofuran-6-sulfonicacid-(4-(thiazol-2-ylsulfamyl)-phenyl)-amide]",inhibition at 10 µM,TbPTP1 [1],> 50%
[O]=[V]([OH])([OH])[OH] [sodium orthovanadate],% inhibition at 1 mM,TbPTP1 [2],90%
N[C@@H](COP(=O)(O)O)C(=O)O [pSer],Km,TbPTP1 [3],"phospho-Tyr (pTyr), and phospho-Ser (pSer)"
